Reference: PMC9157191, “The ex vivo pharmacology of HIV-1 antiretrovirals differs between macaques and humans” (iScience, 2022)
Each block holds one molecule with its values, some of them ahead of it.

Key:
[1] = Drug concentrations in Rhesus macaque colorectal tissue explants (LC-MS/MS); type: in vitro ADME, Rhesus macaque (Macaca mulatta); conditions: for AUC3h–15d / Cmax: Rh. macaque colorectal explants, intracellular
[2] = Drug concentrations in human colorectal tissue explants (LC-MS/MS); type: in vitro ADME; conditions: for AUC3h-15d / Cmax: Human colorectal explants, intracellular
[3] = Drug concentrations in Rhesus macaque vaginal tissue explants (LC-MS/MS); type: in vitro ADME, Rhesus macaque (Macaca mulatta); conditions: for AUC3h–15d / Cmax: Rh. macaque vaginal explants, intracellular
[4] = Drug concentrations in human ecto-cervical tissue explants (LC-MS/MS); conditions: human ecto-cervical explants; harvesting schedule of the assay
[5] = Drug concentrations in Rhesus macaque ecto-cervical tissue explants (LC-MS/MS); type: in vitro ADME, Rhesus macaque (Macaca mulatta); conditions: NHP ecto-cervical explants; harvesting schedule of the assay
SIVmac32H [6] = assay: microbe, parasite or virus in culture; type: cell-based; conditions: for p27 AUC3-15: Rhesus macaque vaginal explants
HIV-1YU.2 K65R = assay: microbe, parasite or virus in culture; type: cell-based; conditions: Human colorectal explants
SIVmac32H [7] = assay: microbe, parasite or virus in culture; type: cell-based; conditions: for p27 AUC3-15: Rhesus macaque cervical explants
SIVmac32H K65RM184V [8] = assay: microbe, parasite or virus in culture; type: cell-based; conditions: for p27 AUC3-15: Rhesus macaque vaginal explants
SIVmac32H K65RM184V [9] = assay: microbe, parasite or virus in culture; type: cell-based; conditions: for p27 AUC3-15: Rhesus macaque colorectal explants
HIV-1YU.2 K65RM184V = assay: microbe, parasite or virus in culture; type: cell-based; conditions: Human colorectal explants;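 as to p24 AUC3-15: high arm above the IC50 and low arm below the IC50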
RT-SHIV [10] = assay: tissue or blood; type: cell-based; conditions: for p27 AUC3-15: Rhesus macaque vaginal explants
HIV-1YU.2 M184V = assay: microbe, parasite or virus in culture; type: cell-based; conditions: Human colorectal explants
SIVmac32H [11] = assay: microbe, parasite or virus in culture; type: cell-based; conditions: for p27 AUC3-15: Rhesus macaque colorectal explants
HIV-1/SIV/SHIV isolates = type: cell-based
HIV-1BaL [12] = assay: microbe, parasite or virus in culture; type: cell-based; conditions: Human colorectal explants
HIV-1YU.2 = assay: microbe, parasite or virus in culture; type: cell-based; conditions: Human colorectal explants
RT-SHIV [13] = assay: tissue or blood; type: cell-based; conditions: for p27 AUC3-15: Rhesus macaque colorectal explants
HIV-1BaL [14] = assay: microbe, parasite or virus in culture; type: cell-based; conditions: Human cervical explants
[15] = tested on: HIV-1YU.2 L313T/I321V and V314T/I321V; type: cell-based
SIVmac32H K65RM184V [16] = assay: microbe, parasite or virus in culture; type: cell-based; conditions: for p27 AUC3-15: Rhesus macaque cervical explants
[17] = Comb. gel, High [ ]: TFV 70 µM + MVC […]
[18] = Comb. gel, Low [ ]: TFV 7 µM + MVC […]
[19] = Single gel, High [ ]: TFV 70 µM
[20] = high concentration: TFV 70 µM, MVC […], or TFV 70 µM + MVC […]
[21] = low concentration: TFV 7 µM, MVC […], or TFV 7 µM + MVC […]
[22] = NHP colorectal explants, day 15

AUC3h–15d [1, 17]: 148.40 fmol·days/mg
Cmax [1, 17]: 29.12 fmol/mg
AUC3h–15d [1, 18]: 107.96 fmol·days/mg
Cmax [1, 18]: 24.43 fmol/mg
AUC3h–15d [1, 19]: 176.28 fmol·days/mg
Cmax [1, 19]: 41.93 fmol/mg
AUC3h–15d ([1]; Single gel, Low [ ]: TFV 7 µM): 164.03 fmol·days/mg
Cmax ([1]; Single gel, Low [ ]: TFV 7 µM): 41.47 fmol/mg
persistence of metabolite: still detected post-dose ([1]; colorectal explants): up to 3 days
AUC3h-15d [2, 17]: 82.53 fmol·days/mg
Cmax [2, 17]: 20.07 fmol/mg
AUC3h-15d [2, 18]: 41.21 fmol·days/mg
Cmax [2, 18]: 8.36 fmol/mg
AUC3h-15d [2, 19]: 98.95 fmol·days/mg
Cmax [2, 19]: 22.41 fmol/mg
AUC3h-15d ([2]; Single gel, Low [ ]: TFV 7 µM): 35.29 fmol·days/mg
Cmax ([2]; Single gel, Low [ ]: TFV 7 µM): 8.36 fmol/mg
difference in TFVdp concentrations between NHP and humans ([2]; colorectal explants): No significant differences
Cmax fold increase ([3]; NHP vaginal Cmax lower than in colorectal explants): 1.6 fold
AUC3h–15d [3, 17]: 96.03 fmol·days/mg
Cmax [3, 17]: 12.81 fmol/mg
AUC3h–15d [3, 18]: 54.08 fmol·days/mg
Cmax [3, 18]: 7.21 fmol/mg
AUC3h–15d [3, 19]: 134.18 fmol·days/mg
Cmax [3, 19]: 17.89 fmol/mg
AUC3h–15d ([3]; Single gel, Low [ ]: TFV 7 µM): 46.22 fmol·days/mg
Cmax ([3]; Single gel, Low [ ]: TFV 7 µM): 6.16 fmol/mg
persistence of metabolite: detected post-dose ([3]; vaginal tissue): 3 h
TFVdp detection [4]: neither detected
TFVdp detection [5]: neither detected
Molecule: CC(Cn1cnc2c(N)ncnc21)OCP(=O)(O)OP(=O)(O)OP(=O)(O)O (stereo in doubt) [TFVdp]

Molecule: Maraviroc [MVC]
IC50 (SIVmac32H [6]; NHP vaginal explants, day 15): 3.32 ± 3.19 µM
p27 AUC3-15 (SIVmac32H [6]; [20]): 1.26 ± 0.24 µgxd/ml
p27 AUC3-15 (SIVmac32H [6]; [21]): 1.45 ± 0.28 µgxd/ml
IC50 (HIV-1YU.2 K65R; day 15): 2770 ± 1120 nM
p24 AUC3-15 (HIV-1YU.2 K65R; [20]): 0.36 ± 0.05 µgxd/ml
p24 AUC3-15 (HIV-1YU.2 K65R; [21]): 0.76 ± 0.10 µgxd/ml
IC50 (SIVmac32H [7]; NHP cervical explants, day 15): 2740 ± 1180 nM
p27 AUC3-15 (SIVmac32H [7]; [20]): 1.27 ± 0.35 µgxd/ml
p27 AUC3-15 (SIVmac32H [7]; [21]): 1.42 ± 0.44 µgxd/ml
IC50 (SIVmac32H K65RM184V [8]; NHP vaginal explants, day 15): 3.31 ± 1.68 µM
p27 AUC3-15 (SIVmac32H K65RM184V [8]; [20]): 1.33 ± 0.30 µgxd/ml
p27 AUC3-15 (SIVmac32H K65RM184V [8]; [21]): 1.55 ± 0.28 µgxd/ml
IC50 (SIVmac32H K65RM184V [9]; [22]): 1980 ± 1070 nM
p27 AUC3-15 (SIVmac32H K65RM184V [9]; [20]): 1.33 ± 0.22 µgxd/ml
p27 AUC3-15 (SIVmac32H K65RM184V [9]; [21]): 1.65 ± 0.32 µgxd/ml
IC50 (HIV-1YU.2 K65RM184V; day 15): 1430 ± 980 nM
p24 AUC3-15 (HIV-1YU.2 K65RM184V; [20]): 0.82 ± 0.09 µgxd/ml
p24 AUC3-15 (HIV-1YU.2 K65RM184V; [21]): 1.60 ± 0.38 µgxd/ml
IC50 (RT-SHIV [10]; NHP vaginal explants, day 15): 2560 ± 1590 nM
p27 AUC3-15 (RT-SHIV [10]; [20]): 1.27 ± 0.28 µgxd/ml
p27 AUC3-15 (RT-SHIV [10]; [21]): 1.54 ± 0.31 µgxd/ml
IC50 (HIV-1YU.2 M184V; day 15): 1240 ± 1880 nM
p24 AUC3-15 (HIV-1YU.2 M184V; [20]): 0.26 ± 0.13 µgxd/ml
p24 AUC3-15 (HIV-1YU.2 M184V; [21]): 0.70 ± 0.11 µgxd/ml
IC50 (SIVmac32H [11]; [22]): 1960 ± 1300 nM
p27 AUC3-15 (SIVmac32H [11]; [20]): 2.42 ± 0.53 µgxd/ml
p27 AUC3-15 (SIVmac32H [11]; [21]): 6.12 ± 1.35 µgxd/ml
potency against the mutant isolates (HIV-1/SIV/SHIV isolates): no impact
IC50 (HIV-1BaL [12]; day 15): 1260 ± 490 nM
p24 AUC3-15 (HIV-1BaL [12]; [20]): 0.59 ± 0.33 µgxd/ml
p24 AUC3-15 (HIV-1BaL [12]; [21]): 2.68 ± 1.79 µgxd/ml
IC50 (HIV-1YU.2; day 15): 1150 ± 840 nM
p24 AUC3-15 (HIV-1YU.2; [20]): 1.60 ± 0.57 µgxd/ml
p24 AUC3-15 (HIV-1YU.2; [21]): 9.15 ± 5.28 µgxd/ml
IC50 (RT-SHIV [13]; [22]): 2320 ± 780 nM
p27 AUC3-15 (RT-SHIV [13]; [20]): 2.85 ± 2.01 µgxd/ml
p27 AUC3-15 (RT-SHIV [13]; [21]): 5.25 ± 3.12 µgxd/ml
IC50 (HIV-1BaL [14]; day 15): 2850 ± 490 nM
p24 AUC3-15 (HIV-1BaL [14]; [20]): 1.32 ± 0.36 µgxd/ml
p24 AUC3-15 (HIV-1BaL [14]; [21]): 2.61 ± 1.35 µgxd/ml
inhibitory potency against Env-mutated HIV-1YU.2 [15]: no reduction of inhibitory potency
IC50 (SIVmac32H K65RM184V [16]; NHP cervical explants, day 15): 4.57 ± 2.92 µM
p27 AUC3-15 (SIVmac32H K65RM184V [16]; [20]): 1.37 ± 0.30 µgxd/ml
p27 AUC3-15 (SIVmac32H K65RM184V [16]; [21]): 1.62 ± 0.33 µgxd/ml
